Results as given in patent publication US8280710B2, “Method for determining thermal stability of collagen or collagen-like peptide” (University of Medicine and Dentistry of New Jersey, priority 2005, dated 2012).
Non-standard residues stand in square brackets, D forms with d. Residues, ends and D or L forms follow the SMILES beside them. Hyp = O=C(O)[C@@H]1C[C@@H](O)CN1

What was measured:
[1] = Method for predicting global Tm of collagen peptides from amino acid sequence; conditions: observed minus predicted, peptides of Table 3
Experimental: The global thermal stability of homotrimeric triple helical peptides with length of at least 6 tripeptide units and, in most cases, containing 10 tripeptide units was determined as follows.
For the total number of triplets n in a given peptide, the base Tm^0(n) for (Pro-Hyp-Gly) or (Pro-Pro-Gly)n was calculated from the length dependence (Equation 1), including any effect of blocking groups;
The melting temperature value was decreased for every triplet in the sequence that was not Gly-Pro-Hyp, subtracting a value of ΔTm^GXY (Table 1). The N-terminal and C-terminal tripeptide units were excluded from the calculation due to the staggering of the chains and the disorder for the peptide ends (Bella et al. (1994) supra; Li, et al. (1993) Biochemistry 32:7377-7387; Kramer, et al. (2001) J. Mol. Biol. 301:1191-1205).
The resulting value for the peptide melting temperature was adjusted using the ΔTm^int values for interactions between neighboring tripeptides (Table 2).
The method was formulated as follows.
To extrapolate the dependence of the Tm of the host peptides on peptide length, the experimental values for (Pro-Hyp-Gly)n and (Pro-Pro-Gly)n versus n, where n is the number of tripeptide units, were fit to the exponential decay function
[formula] where Tm^0(n) is defined as the base thermal stability of the repeating polytripeptide standard, Tm^max is the maximum melting temperature, and the constant n0 represents the length of the repeating peptide with Tm=0.

[2] = peptide of Table 3, defined standard conditions
Experimental: The propensity measurements for all 20 amino acid residues in the Xaa1 position in a Gly-Xaa1-Hyp context and all 20 amino acid residues in the Xaa2 position in a Gly-Pro-Xaa2 context were determined by measuring thermal stability of host-guest peptides (Persikov, et al. (2000) supra).
The Tm values of all host-guest peptides were measured under a set of standard conditions, with c=1 mg/ml in phosphate-buffered saline, pH 7.0, and with a heating rate average of 0.1° C./minute (Persikov, et al. (2004) supra).

Compound | ΔTm [1] [°C] | Tm^obs [2] [°C]
CC(=O)NCC(=O)N1CCC[C@H]1C(=O)N1C[C@H](O)C[C@H]1C(=O)NCC(=O)N1CCC[C@H]1C(=O)N1C[C@H](O)C[C@H]1C(=O)NCC(=O)N1CCC[C@H]1C(=O)N1C[C@H](O)C[C@H]1C(=O)NCC(=O)N[C@@H](CCCCN)C(=O)N[C@@H](CCCNC(=N)N)C(=O)NCC(=O)N[C@@H](CCCCN)C(=O)N1C[C@H](O)C[C@H]1C(=O)NCC(=O)N1CCC[C@H]1C(=O)N1C[C@H](O)C[C@H]1C(=O)NCC(=O)N1CCC[C@H]1C(=O)N1C[C@H](O)C[C@H]1C(=O)NCC(=O)N1CCC[C@H]1C(=O)N1C[C@H](O)C[C@H]1C(=O)NCC(=O)NCC(N)=O [AchE-HG-C1, Ac-GPO-GPO-GPO-GKR-GKO-GPO-GPO-GPO-GG-NH2] (Ac-GP[Hyp]GP[Hyp]GP[Hyp]GKRGK[Hyp]GP[Hyp]GP[Hyp]GP[Hyp]GG-NH2) | −1.0 | 32.3
CC(=O)NCC(=O)N1CCC[C@H]1C(=O)N1C[C@H](O)C[C@H]1C(=O)NCC(=O)N1CCC[C@H]1C(=O)N1C[C@H](O)C[C@H]1C(=O)NCC(=O)N1CCC[C@H]1C(=O)N1C[C@H](O)C[C@H]1C(=O)NCC(=O)N[C@@H](CCCNC(=N)N)C(=O)N[C@@H](CCCCN)C(=O)NCC(=O)N[C@@H](CCCNC(=N)N)C(=O)N1C[C@H](O)C[C@H]1C(=O)NCC(=O)N1CCC[C@H]1C(=O)N1C[C@H](O)C[C@H]1C(=O)NCC(=O)N1CCC[C@H]1C(=O)N1C[C@H](O)C[C@H]1C(=O)NCC(=O)N1CCC[C@H]1C(=O)N1C[C@H](O)C[C@H]1C(=O)NCC(=O)NCC(N)=O [AchE-HG-N1, Ac-GPO-GPO-GPO-GRK-GRO-GPO-GPO-GPO-GG-NH2] (Ac-GP[Hyp]GP[Hyp]GP[Hyp]GRKGR[Hyp]GP[Hyp]GP[Hyp]GP[Hyp]GG-NH2) | −0.6 | 22.2
CC(=O)NCC(=O)N1CCC[C@H]1C(=O)N[C@@H](C)C(=O)NCC(=O)N1CCC[C@H]1C(=O)N[C@@H](C)C(=O)NCC(=O)N1CCC[C@H]1C(=O)N[C@H](C(=O)NCC(=O)N1CCC[C@H]1C(=O)N[C@@H](C)C(=O)NCC(=O)N[C@@H](C)C(=O)N[C@@H](CCCNC(=N)N)C(=O)NCC(=O)N1CCC[C@H]1C(=O)N[C@@H](C)C(=O)NCC(=O)N1CCC[C@H]1C(=O)N1C[C@H](O)C[C@H]1C(=O)NCC(=O)N1CCC[C@H]1C(=O)N[C@@H](C)C(=O)NCC(=O)N1CCC[C@H]1C(=O)N1C[C@H](O)C[C@H]1C(=O)NCC(=O)N1CCC[C@H]1C(=O)N1C[C@H](O)C[C@H]1C(=O)NCC(=O)N[C@H](C(N)=O)C(C)C)C(C)C [T1-892 (O24A), Ac-(GPA)2-GPV-GPA-GAR-GPA-GPO-GPA-(GPO)2-GV-NH2] (Ac-GPAGPAGPVGPAGARGPAGP[Hyp]GPAGP[Hyp]GP[Hyp]GV-NH2) | 1.4 | 23.2
CC[C@H](C)[C@H](NC(=O)CNC(=O)[C@@H]1C[C@@H](O)CN1C(=O)[C@@H]1CCCN1C(=O)CNC(C)=O)C(=O)N[C@@H](CCCNC(=N)N)C(=O)NCC(=O)N1CCC[C@H]1C(=O)N[C@@H](CCCCN)C(=O)NCC(=O)N[C@@H](CCC(N)=O)C(=O)N[C@@H](CCCCN)C(=O)NCC(=O)N[C@@H](CCC(=O)O)C(=O)N1C[C@H](O)C[C@H]1C(=O)NCC(=O)N[C@@H](CC(C)C)C(=O)N1C[C@H](O)C[C@H]1C(=O)NCC(=O)N1CCC[C@H]1C(=O)N1C[C@H](O)C[C@H]1C(=O)NCC(=O)N1CCC[C@H]1C(=O)N1C[C@H](O)C[C@H]1C(=O)NCC(=O)N1CCC[C@H]1C(=O)N1C[C@H](O)C[C@H]1C(=O)NCC(=O)N1CCC[C@H]1C(=O)N1C[C@H](O)C[C@H]1C(=O)NCC(=O)N[C@@H](Cc1ccc(O)cc1)C(N)=O [C1qC-67, Ac-GPO-GIR-GPK-GQK-GEO-GLO-(GPO)4-GY-NH2] (Ac-GP[Hyp]GIRGPKGQKGE[Hyp]GL[Hyp]GP[Hyp]GP[Hyp]GP[Hyp]GP[Hyp]GY-NH2) | −1.4 | 28.4
CC(C)[C@H](NC(=O)[C@@H]1CCCN1C(=O)CNC(=O)[C@H](C)NC(=O)[C@@H]1CCCN1C(=O)CNC(=O)[C@H](C)NC(=O)[C@@H]1CCCN1C(=O)CN)C(=O)NCC(=O)N1CCC[C@H]1C(=O)N[C@@H](C)C(=O)NCC(=O)N[C@@H](C)C(=O)N[C@@H](CCCNC(=N)N)C(=O)NCC(=O)N1CCC[C@H]1C(=O)N[C@@H](C)C(=O)NCC(=O)N1CCC[C@H]1C(=O)N1C[C@H](O)C[C@H]1C(=O)NCC(=O)N1CCC[C@H]1C(=O)N1C[C@H](O)C[C@H]1C(=O)NCC(=O)N1CCC[C@H]1C(=O)N1C[C@H](O)C[C@H]1C(=O)NCC(=O)N1CCC[C@H]1C(=O)N1C[C@H](O)C[C@H]1C(=O)NCC(=O)N[C@@H](Cc1ccc(O)cc1)C(=O)O [T1-892 unbl, GPA-GPA-GPV-GPA-GAR-GPA-(GPO)4-GY] (H-GPAGPAGPVGPAGARGPAGP[Hyp]GP[Hyp]GP[Hyp]GP[Hyp]GY-OH) | −3.2 | 20.6
CC(=O)NCC(=O)N1CCC[C@H]1C(=O)N1C[C@H](O)C[C@H]1C(=O)NCC(=O)N1CCC[C@H]1C(=O)N1C[C@H](O)C[C@H]1C(=O)NCC(=O)N[C@@H](CCCNC(=N)N)C(=O)N1C[C@H](O)C[C@H]1C(=O)NCC(=O)N[C@@H](CCCCN)C(=O)N[C@@H](CCCNC(=N)N)C(=O)NCC(=O)N[C@@H](CCCCN)C(=O)N[C@@H](CCC(N)=O)C(=O)NCC(=O)N[C@@H](CCC(N)=O)C(=O)N[C@@H](CCCCN)C(=O)NCC(=O)N1CCC[C@H]1C(=O)N1C[C@H](O)C[C@H]1C(=O)NCC(=O)N1CCC[C@H]1C(=O)N1C[C@H](O)C[C@H]1C(=O)NCC(=O)N1CCC[C@H]1C(=O)N1C[C@H](O)C[C@H]1C(=O)NCC(=O)N1CCC[C@H]1C(=O)N1C[C@H](O)C[C@H]1C(=O)NCC(N)=O [AchE-P231 (r), Ac-GPO-GPO-GRO-GKR-GKQ-GQK-(GPO)4-G-NH2] (Ac-GP[Hyp]GP[Hyp]GR[Hyp]GKRGKQGQKGP[Hyp]GP[Hyp]GP[Hyp]GP[Hyp]G-NH2) | −1.9 | 23.9
CC(=O)NCC(=O)N1CCC[C@H]1C(=O)N1C[C@H](O)C[C@H]1C(=O)NCC(=O)N1CCC[C@H]1C(=O)N1C[C@H](O)C[C@H]1C(=O)NCC(=O)N[C@@H](CCCNC(=N)N)C(=O)N1C[C@H](O)C[C@H]1C(=O)NCC(=O)N[C@@H](CCCNC(=N)N)C(=O)N[C@@H](CCCCN)C(=O)NCC(=O)N[C@@H](CCCNC(=N)N)C(=O)N1C[C@H](O)C[C@H]1C(=O)NCC(=O)N1CCC[C@H]1C(=O)N1C[C@H](O)C[C@H]1C(=O)NCC(=O)N1CCC[C@H]1C(=O)N1C[C@H](O)C[C@H]1C(=O)NCC(=O)N1CCC[C@H]1C(=O)N1C[C@H](O)C[C@H]1C(=O)NCC(=O)N1CCC[C@H]1C(=O)N1C[C@H](O)C[C@H]1C(=O)NCC(=O)N1CCC[C@H]1C(=O)N1C[C@H](O)C[C@H]1C(=O)NCC(N)=O [AchE-P126 (r), Ac-GPO-GPO-GRO-GRK-GRO-(GPO)5-G-NH2] (Ac-GP[Hyp]GP[Hyp]GR[Hyp]GRKGR[Hyp]GP[Hyp]GP[Hyp]GP[Hyp]GP[Hyp]GP[Hyp]G-NH2) | −2.6 | 30.0
CC(=O)NCC(=O)N1CCC[C@H]1C(=O)N1C[C@H](O)C[C@H]1C(=O)NCC(=O)N1CCC[C@H]1C(=O)N1C[C@H](O)C[C@H]1C(=O)NCC(=O)N[C@@H](CCCNC(=N)N)C(=O)N[C@@H](CCC(N)=O)C(=O)NCC(=O)N[C@@H](CCCCN)C(=O)N[C@@H](CCCNC(=N)N)C(=O)NCC(=O)N[C@@H](CCCCN)C(=O)N1C[C@H](O)C[C@H]1C(=O)NCC(=O)N1CCC[C@H]1C(=O)N1C[C@H](O)C[C@H]1C(=O)NCC(=O)N1CCC[C@H]1C(=O)N1C[C@H](O)C[C@H]1C(=O)NCC(=O)N1CCC[C@H]1C(=O)N1C[C@H](O)C[C@H]1C(=O)NCC(=O)NCC(N)=O [AchE-HG-Alt, Ac-GPO-GPO-GRQ-GKR-GKO-GPO-GPO-GPO-GG-NH2] (Ac-GP[Hyp]GP[Hyp]GRQGKRGK[Hyp]GP[Hyp]GP[Hyp]GP[Hyp]GG-NH2) | −0.5 | 20.1
